These results are taken from patent publication US8648066B2 (Exelixis, Inc., priority 2009, dated 2014).

The assay deals with mTOR/GbL/Raptor (mTORC1) (Homo sapiens, UniProt P42345). As to the kind of experiment: mTOR/GbL/Raptor (mTORC1) ELISA assay. Conditions: phosphorylation of 4E-BP1; 0.2 nM mTORC1, 10 μM ATP; read-out: IC50 in this assay (mTORC1 ELISA). Format: biochemical. The essentials: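 Human mTORC1 (0.2 nM) phosphorylated 50 nM His-tagged 4E-BP1 with 10 µM ATP in HEPES pH 7.2 containing 10 mM MnCl2, 120 min at ambient temperature. Substrate was captured on Ni-chelate plates; phospho-4E-BP1 was detected by primary antibody and HRP secondary with luminescence.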
For orientation: In an ELISA, binding on a coated surface is turned into a signal by an enzyme label.

As usually defined, the IC50 is the concentration needed to halve the response being measured.

Several values for one entry are separate records, joined by “and”; a condition that tells them apart may be missing. Equal values may be shown once.

For `Cc1nc2ncc(-c3ccc4c(c3)CN(c3nc(CN)nc5c3CC(C)(C)CC5)CCO4)cc2[nH]1` [Example 352, 1-{6,6-dimethyl-4-[7-(2-methyl-1H-imidazo[4,5-b]pyridin-6-yl)-2,3-dihydro-1,4-benzoxazepin-4(5H)-yl]-5,6,7,8-tetrahydroquinazolin-2-yl}methanamine], the concentration for half-maximal inhibition (IC50) was no more than 10 nM.
As for `Cc1nc2ccc(-c3ccc4c(c3)CN(c3ncncc3C)CCO4)cc2[nH]1` [Example 44, 7-(2-methyl-1H-benzimidazol-6-yl)-4-(5-methylpyrimidin-4-yl)-2,3,4,5-tetrahydro-1,4-benzoxazepine], the IC50 lay within 1000 to 2000 nM.
Under `COc1cc2nccc(N3CCOc4ccc(-c5ccc6nc(N)[nH]c6c5)cc4C3)c2cc1OC` [Example 191, 6-{4-[6,7-bis(methyloxy)quinolin-4-yl]-2,3,4,5-tetrahydro-1,4-benzoxazepin-7-yl}-1H-benzimidazol-2-amine] stands 250 to 1000 nM; under `CC1(C)CCc2ncnc(N3CCOc4ccc(-c5cnc(N)c(S(=O)(=O)N6CC(C)(N)C6)c5)cc4C3)c2C1` [Example 439, 3-[(3-amino-3-methylazetidin-1-yl)sulfonyl]-5-[4-(6,6-dimethyl-5,6,7,8-tetrahydroquinazolin-4-yl)-2,3,4,5-tetrahydro-1,4-benzoxazepin-7-yl]pyridin-2-amine], no more than 10 nM; under `CC1(C)CCc2ncnc(N3CCOc4ccc(-c5cnc(N)c(S(=O)(=O)NCCO)c5)cc4C3)c2C1` [Example 371, 2-amino-5-[4-(6,6-dimethyl-5,6,7,8-tetrahydroquinazolin-4-yl)-2,3,4,5-tetrahydro-1,4-benzoxazepin-7-yl]-N-(2-hydroxyethyl)pyridine-3-sulfonamide], no more than 10 nM.
With `Cc1nc2c(c(N3CCOc4ccc(-c5cnc6nc(C7CC7)[nH]c6c5)cc4C3)n1)CC(C)(C)CC2` [Example 544, 7-(2-cyclopropyl-1H-imidazo[4,5-b]pyridin-6-yl)-4-(2,6,6-trimethyl-5,6,7,8-tetrahydroquinazolin-4-yl)-2,3,4,5-tetrahydro-1,4-benzoxazepine] the figure was no more than 10 nM.
As to `Nc1nc2ncc(-c3ccc4c(c3)CN(c3ncnc5cccnc35)CCO4)cc2[nH]1` [Example 227, 6-(4-pyrido[3,2-d]pyrimidin-4-yl-2,3,4,5-tetrahydro-1,4-benzoxazepin-7-yl)-1H-imidazo[4,5-b]pyridin-2-amine], the IC50 is 50 to 250 nM.
For `CN(C)C(=O)c1cc(-c2ccc3c(c2)CN(c2ncnc4c2CC(C)(C)CC4)CCO3)cnc1N` [Example 379, 2-amino-5-[4-(6,6-dimethyl-5,6,7,8-tetrahydroquinazolin-4-yl)-2,3,4,5-tetrahydro-1,4-benzoxazepin-7-yl]-N,N-dimethylpyridine-3-carboxamide], the concentration for half-maximal inhibition (IC50) is 50 to 250 nM.
For the molecule `CC1(C)CCc2ncnc(N3CCOc4ccc(-c5cnc(N)c(S(=O)(=O)NC6CNC6)c5)cc4C3)c2C1` [Example 426, 2-amino-N-azetidin-3-yl-5-[4-(6,6-dimethyl-5,6,7,8-tetrahydroquinazolin-4-yl)-2,3,4,5-tetrahydro-1,4-benzoxazepin-7-yl]pyridine-3-sulfonamide], the half-inhibitory concentration (IC50) lay in the range of 10 to 50 nM.
For `COc1cc2ncnc(N3CCOc4ccc(-c5cnc6nc(N)[nH]c6c5)cc4C3)c2cc1OC` [Example 180, 6-{4-[6,7-bis(methyloxy)quinazolin-4-yl]-2,3,4,5-tetrahydro-1,4-benzoxazepin-7-yl}-1H-imidazo[4,5-b]pyridin-2-amine], the 50% inhibitory concentration (IC50) is 10 to 50 nM.
With `Cc1c(Nc2ccccc2)ncnc1N1CCOc2ccc(-c3cnc4nc(N)[nH]c4c3)cc2C1` [Example 540, 6-{4-[5-methyl-6-(phenylamino)pyrimidin-4-yl]-2,3,4,5-tetrahydro-1,4-benzoxazepin-7-yl}-1H-imidazo[4,5-b]pyridin-2-amine] the figure was 10 to 50 nM; with `CCNc1nc2ccc(-c3ccc4c(c3)CN(c3ccnc5ccc(OC)cc35)CCO4)cc2[nH]1` [Example 278, N-ethyl-6-{4-[6-(methyloxy)quinolin-4-yl]-2,3,4,5-tetrahydro-1,4-benzoxazepin-7-yl}-1H-benzimidazol-2-amine], 50 to 250 nM; with `Cc1nc(CN(C)C)nc(N2CCOc3ccc(-c4cnc5sc(N)nc5c4)cc3C2)c1C` [Example 671, 6-(4-{2-[(dimethylamino)methyl]-5,6-dimethylpyrimidin-4-yl}-2,3,4,5-tetrahydro-1,4-benzoxazepin-7-yl)[1,3]thiazolo[5,4-b]pyridin-2-amine], 250 to 1000 nM.
As for `CC1=C(C)C(C)(C)Cc2c1ncnc2N1CCOc2ccc(-c3cnc4nc(C)[nH]c4c3)cc2C1` [Example 552, 7-(2-methyl-1H-imidazo[4,5-b]pyridin-6-yl)-4-(6,6,7,8-tetramethyl-5,6-dihydroquinazolin-4-yl)-2,3,4,5-tetrahydro-1,4-benzoxazepine], the IC50 was no more than 10 nM.
With `CNc1ncc(-c2ccc3c(c2)CN(c2ncnc4c2CC(C)(C)CC4)CCO3)cc1S(=O)(=O)NCCO` [Example 520, 5-[4-(6,6-dimethyl-5,6,7,8-tetrahydroquinazolin-4-yl)-2,3,4,5-tetrahydro-1,4-benzoxazepin-7-yl]-N-(2-hydroxyethyl)-2-(methylamino)pyridine-3-sulfonamide], the IC50 was no more than 10 nM.
As to `Cc1nc2ncc(-c3ccc4c(c3)CN(c3ncnc5c3CC[C@@H](C)C5)CCO4)cc2[nH]1` [Example 559, 7-(2-methyl-1H-imidazo[4,5-b]pyridin-6-yl)-4-[(7R)-7-methyl-5,6,7,8-tetrahydroquinazolin-4-yl]-2,3,4,5-tetrahydro-1,4-benzoxazepine], the half-inhibitory concentration (IC50) lay within 10 to 50 nM.
Consider `COc1ccc2c(N3CCOc4ccc(-c5ccc6c(c5)CC(=O)N6)cc4C3)nc(C)nc2c1` [Example 524, 5-{4-[2-methyl-7-(methyloxy)quinazolin-4-yl]-2,3,4,5-tetrahydro-1,4-benzoxazepin-7-yl}-1,3-dihydro-2H-indol-2-one], for which the concentration for half-maximal inhibition (IC50) lay within 1000 to 2000 nM.
With `Cc1ncnc(N2CCOc3ccc(-c4ccc(-c5ncc[nH]5)cc4)cc3C2)c1Cc1ccc(F)cc1` [Example 131, 4-{5-[(4-fluorophenyl)methyl]-6-methylpyrimidin-4-yl}-7-[4-(1H-imidazol-2-yl)phenyl]-2,3,4,5-tetrahydro-1,4-benzoxazepine], the IC50 was no more than 10 nM.
On to `CC(=O)Nc1nc2cc(-c3ccc4c(c3)CN(c3nc(CN(C)C)nc5c3CC(C)(C)CC5)CCO4)cnc2s1` [Example 617, N-[6-(4-{2-[(dimethylamino)methyl]-6,6-dimethyl-5,6,7,8-tetrahydroquinazolin-4-yl}-2,3,4,5-tetrahydro-1,4-benzoxazepin-7-yl)[1,3]thiazolo[5,4-b]pyridin-2-yl]acetamide], for which the concentration for half-maximal inhibition (IC50) was 10 to 50 nM and 50 to 250 nM.
Turning to `CCNc1nc2ncc(-c3ccc4c(c3)CN(c3ncnc5c3CC(C)(C)CC5)CCO4)cc2[nH]1` [Example 264, 6-[4-(6,6-dimethyl-5,6,7,8-tetrahydroquinbazolin-4-yl)-2,3,4,5-tetrahydro-1,4-benzoxazepin-7-yl]-N-ethyl-1H-imidazo[4,5-b]pyridin-2-amine], the half-inhibitory concentration (IC50) was no more than 10 nM.
For the molecule `Cc1ncnc(N2CCOc3ccc(-c4ccc5nc(N)cn5c4)cc3C2)c1Cc1ccc(F)cc1` [Example 145, 6-(4-{5-[(4-fluorophenyl)methyl]-6-methylpyrimidin-4-yl}-2,3,4,5-tetrahydro-1,4-benzoxazepin-7-yl)imidazo[1,2-a]pyridin-2-amine], the half-inhibitory concentration (IC50) fell in the range of 10 to 50 nM.
On to `COCc1nc2ccc(-c3ccc4c(c3)CN(c3ccnc5ccccc35)CCO4)cc2[nH]1` [Example 196, 7-{2-[(methyloxy)methyl]-1H-benzimidazol-6-yl}-4-quinolin-4-yl-2,3,4,5-tetrahydro-1,4-benzoxazepine], for which the IC50 was no less than 2000 nM.
For the molecule `COC(=O)Nc1nc2ccc(-c3ccc4c(c3)CN(c3nc(C)nc5ccccc35)CCO4)cc2[nH]1` [Example 108, methyl {6-[4-(2-methylquinazolin-4-yl)-2,3,4,5-tetrahydro-1,4-benzoxazepin-7-yl]-1H-benzimidazol-2-yl}carbamate], the IC50 was in the range of 250 to 1000 nM.
With `Cc1nc2ncc(-c3ccc4c(c3)CN(c3nc(CNC5CCC5)nc5c3CC(C)(C)CC5)CCO4)cc2[nH]1` [Example 597, N-({6,6-dimethyl-4-[7-(2-methyl-1H-imidazo[4,5-b]pyridin-6-yl)-2,3-dihydro-1,4-benzoxazepin-4(5H)-yl]-5,6,7,8-tetrahydroquinazolin-2-yl}methyl)cyclobutanamine] the figure was no more than 10 nM; with `CNCCN(C)c1ncnc(N2CCOc3ccc(-c4cnc5nc(C6CC6)[nH]c5c4)cc3C2)c1C` [Example 635, N-{6-[7-(2-cyclopropyl-1H-imidazo[4,5-b]pyridin-6-yl)-2,3-dihydro-1,4-benzoxazepin-4(5H)-yl]-5-methylpyrimidin-4-yl}-N,N′-dimethylethane-1,2-diamine], 250 to 1000 nM; with `CN(C)Cc1nc2c(c(N3CCOc4ccc(-c5ccc(Cl)c(C(N)=O)c5)cc4C3)n1)CC(C)(C)CC2` [Example 428, 2-chloro-5-(4-{2-[(dimethylamino)methyl]-6,6-dimethyl-5,6,7,8-tetrahydroquinazolin-4-yl}-2,3,4,5-tetrahydro-1,4-benzoxazepin-7-yl)benzamide], no less than 2000 nM.
`Cc1nc2c(c(N3CCOc4ccc(-c5cnc(N)c(S(=O)(=O)N[C@@H]6CCN(C)C6)c5)cc4C3)n1)CC(C)(C)CC2` [Example 421, 2-amino-N-[(3R)-1-methylpyrrolidin-3-yl]-5-[4-(2,6,6-trimethyl-5,6,7,8-tetrahydroquinazolin-4-yl)-2,3,4,5-tetrahydro-1,4-benzoxazepin-7-yl]pyridine-3-sulfonamide]: the IC50 fell in the range of 250 to 1000 nM.
With `Cc1nc2ccc(-c3ccc4c(c3)CN(c3ncnc5cc(C(F)(F)F)ccc35)CCO4)cc2[nH]1` [Example 36, 7-(2-methyl-1H-benzimidazol-6-yl)-4-[7-(trifluoromethyl)quinazolin-4-yl]-2,3,4,5-tetrahydro-1,4-benzoxazepine], the 50% inhibitory concentration (IC50) was 50 to 250 nM.
